Reference: patent publication US5681823A, “P^1, P^4 -dithio-P^2 -P^3 -monochloromethylene 5', 5'"-diadenosine P^1, P^4 -tetraphosphate as antithrombotic agent” (PRP Inc., priority 1996, dated 1997)
Like-named read-outs stand apart in the source and are kept apart here.

What was measured:
[1] = system: Platelet release reaction; assay: Platelet release reaction (ATP, luciferin-luciferase, lumiaggregometer); format: cell-based, human; settings: for IC50: Homo sapiens, Platelet, lumiaggregometer
Experimental: (§1) The effects of thio-CHCl-AP4 A and the reference agent on both ADP and collagen induced platelet aggregation, and release reaction were tested in a lumiaggregometer. Normal human PRP was separated from sodium […] anticoagulated (0.38%) blood. Platelet aggregation and release reaction induced by 5 μM ADP or 1 μg collagen/ml. The lumiaggregometer was equipped to assay both platelet aggregation and the luciferase reaction of ATP simultaneously a) in the absence of agent (control); and b) in the presence of various concentrations of thio-CHCl-AP4 A or CHCl-AP4 A. The measured amount of ATP released from the activated platelets by the agonist represents the release reaction. The luminescence produced by the luciferin-luciferase reaction was linear with respect to the amount of ATP released.

[2] = Molecular stability in whole blood (HPLC of blood extracts); format: in vitro ADME, human; settings: for Main Peak / Total / X1 (second peak) / X2 (second peak): 250 μM agent, mean of two
Experimental: To test the molecular stability of the agents, blood was incubated with each agent at […] for 4 hours. Samplings at the indicated incubation times were extracted and CHC -AP4 A or thio-CHCl-AP4 A were assayed in an HPLC (Waters 600E pump and controller) with quartenary amine anion exchange column (Whatman Partisil 10) and analysed (Beckman System Gold). The retention times for CHCl-AP4 A and thio-CHCl-AP4 A were 3.39 and 5.95, respectively. Peak areas were integrated and used to construct a standard curve for a concentration range (1, 2, 4, 6, 8 and 10 μM). Both CHCl-AP4 A and thio-CHCl-AP4 A were pure, as observed by a single peak on HPLC, and by a linear relationship between the concentration of the agent and HPLC peak areas. Normal human blood anticoagulated with 0.38% sodium citrate was incubated in the presence of250 μM CHCl-AP4 A or thio-CHCl-AP4 A at […] for 4 hours. Blood samples were extracted with 3% perchloric acid and neutralized with K2 CO3. The extracts were kept at -80° C. until an assay using an HPLC. The values in Table 9 represent a mean of two experiments and are expressed in nmol/ml blood. […] An estimated quantity of CHCl-AP4 A major peak indicated a slow degradation showing a reduction of 30% after 4 hours incubation. At least 80% of degradation product, possibly chloromethylene monoadenosine triphosphate (AppCp) is associated with the second peak (X1). […] The second peak of the blood extract with thio-CHCl-AP4 A may be an isomer (X2), e.g., monothio compound (Aps pCppA or AppCpps A). It was not detected by HPLC of the pure compound, but registered a small portion (<10%) in the blood extraction at time 0 and about 20% of the major peak thereafter.

[3] = system: fibrinogen receptor (GPIIb/IIIa); assay: Fibrinogen binding sites on ADP-activated platelets (FITC-anti-fgn, flow cytometer); format: cell-based, human; settings: for % binding (fibrinogen bound on ADP-activated platelets): 5 μM ADP
Experimental: Platelet responses to the agonists include in addition to aggregation a) release reaction, b) fibrinogen receptor silos (GPIIb/IIIa) and, c) platelet factor 3 activation. The effects of thio-CHCl-AP4 A and the reference agent (CHCl-AP4 A, compound E10 of Zamecnik '550) were tested on each of these responses.
Platelet surface receptors for fibrinogen are known to be increased by activation. The effects of thio-CHCl-AP4 A and CHCl-AP4 A on fibrinogen binding sites of activated platelets were assayed by means of Fluorescein isothiocyanate conjugated antifibrinogen antibody (FITC-anti-fgn) techniques in a flow cytometer (FACS, Becton-Dickinson). PRP was used at 1:20 final dilution. Platelets were activated by ADP in the presence or absence of the agents at 22° C. for 5 min. After incubation of activated platelets with FITC-Anti-Fgn at 22° C. for 10 min., 0.5 ml of 0.2% formyl saline (0.2% formaldehyde in 0.9% NaCl) was added to inhibit further activation. Samples included platelets that were a) unstimulated; b) stimulated with 5 μM ADP; c) exposed to agents (CHCl-AP4 A or thio-CHCl-AP4 A) for 5 minutes before ADP stimulation.

Platelet Factor 3 (PF3) = assay: Platelet factor 3 (PF3) activation, Stypven clotting time; format: cell-based, human; settings: for Clotting Time (Stypven), ADP-stimulated PF3 activity / Net Change of clotting time / activity at 10 µM: 10 μM agent, 10 μM ADP; for Clotting Time (Stypven), ADP-stimulated PF3 activity: mean of two, baseline 45.8, saline control 38.9; for Net Change of clotting time: saline control -6.9; for activity at 10 µM: Homo sapiens, Platelet, 5 min, saline control 100, read-out: % Change of clotting time
Experimental: PF3 activity of the platelets is enhanced by ADP stimulation and measured by the Stypven clotting time (P. Zamecnik et al., PNAS (USA) 89:2370-2373 (1992)). The data represent a mean of two experiments. Fresh normal human platelet-rich plasma (3×10^8 platelets per ml) was preincubated in the presence or absence of the agents (10 μM) at 37° C. for 5 min and then tested for PF3 activity of the platelets that was stimulated by 10 μM ADP.

[4] = system: ADP and collagen induced platelet aggregation; assay: Platelet aggregation in lumiaggregometer (ADP or collagen); format: cell-based, human; settings: for IC50: Homo sapiens, Platelet, lumiaggregometer
Experimental: as §1

[5] = compared to CHCl-AP4 A, in words

SMILES | IC50 ([1]; agonist 5 μM ADP) [µM] | IC50 ([1]; agonist collagen 1 μg/ml) [µM] | Main Peak ([2]; 0 min) [nmol/ml blood] | Total ([2]; 0 min) [nmol/ml blood] | Main Peak ([2]; 60 min) [nmol/ml blood] | Total ([2]; 60 min) [nmol/ml blood] | Main Peak ([2]; 120 min) [nmol/ml blood] | Total ([2]; 120 min) [nmol/ml blood] | Main Peak ([2]; 240 min) [nmol/ml blood] | Total ([2]; 240 min) [nmol/ml blood] | % binding (fibrinogen bound on ADP-activated platelets) ([3]; 2.5 μM agent) [% binding] | % binding (fibrinogen bound on ADP-activated platelets) ([3]; 5.0 μM agent) [% binding] | Clotting Time (Stypven), ADP-stimulated PF3 activity (Platelet Factor 3 (PF3)) [s] | Net Change of clotting time (Platelet Factor 3 (PF3)) | activity at 10 µM (Platelet Factor 3 (PF3)) [%] | IC50 ([4]; agonist 5 μM ADP) [µM] | IC50 ([4]; agonist collagen 1 μg/ml) [µM] | further results
Nc1ncnc2c1ncn2[C@@H]1O[C@H](COP(=O)(O)OP(=O)(O)C(Cl)P(=O)(O)OP(=O)(O)OC[C@H]2O[C@@H](n3cnc4c(N)ncnc43)[C@H](O)[C@@H]2O)[C@@H](O)[C@H]1O (stereo partly drawn) [CHCl-AP4 A] | 4.5 | 35 | 249.2 | 249.2 | 249.0 | 274.8 | 222.0 | 258.6 | 173.2 | 236.3 | 70.9 | 41.3 | 43.1 | -2.7 | 39.1 | 14 | > 100 | effect on collagen-induced release reaction ([1]; agonist collagen, in words): inhibited; X1 (second peak) ([2]; 0 min): trace; X1 (second peak) ([2]; 60 min): 25.8 nmol/ml blood; X1 (second peak) ([2]; 120 min): 36.6 nmol/ml blood; X1 (second peak) ([2]; 240 min): 63.3 nmol/ml blood; recovery at 1 h, 250 µM ([2]; human, blood, 60 minutes, read-out: Total extraction efficiency): 110%; metabolised at 4 h, 250 µM ([2]; human, blood, after 4 hours incubation, read-out: reduction of major peak (slow degradation)): 30%; degradation product associated with the second peak (X1) ([2]; whole blood): At least 80%; % binding (fibrinogen bound on ADP-activated platelets) ([3]; 7.5 μM agent): 36.1 % binding; % binding (fibrinogen bound on ADP-activated platelets) ([3]; 10 μM agent): 23.8 % binding; effect on collagen-induced aggregation ([4]; agonist collagen, in words): not inhibited
Nc1ncnc2c1ncn2[C@@H]1O[C@H](COP(O)(=S)OP(=O)(O)C(Cl)P(=O)(O)OP(O)(=S)OC[C@H]2O[C@@H](n3cnc4c(N)ncnc43)[C@H](O)[C@@H]2O)[C@@H](O)[C@H]1O (stereo partly drawn) [Thio-CHCl-AP4 A, P^1, P^4 -dithio -P^2 -P^3 monochloromethylene 5', 5'" diadenosine P^1, P^4 -tetraphosphate] | 0.7 | 1.7 | 157.7 | 172.0 | 172.3 | 205.9 | 180.0 | 211.4 | 173.7 | 202.0 | 9.9 | 5.3 | 44.5 | -1.3 | 18.8 | 1.6 | 9 | X2 (second peak) ([2]; 0 min): 14.3 nmol/ml blood; X2 (second peak) ([2]; 60 min): 33.6 nmol/ml blood; X2 (second peak) ([2]; 120 min): 31.4 nmol/ml blood; X2 (second peak) ([2]; 240 min): 38.3 nmol/ml blood; second peak (X2), % of the major peak ([2]; after time 0): about 20 % of the major peak; stability in blood ([2]; at least 4 hours at 37° C., in words): very stable in blood for at least 4 hours at 37 °C; recovery at 2 h, 250 µM ([2]; human, blood, 120 minutes, read-out: Total extraction efficiency): 85%; recovery at 1 h, 250 µM ([2]; human, blood, samples after 60 minutes, read-out: Extraction efficiency): 81 to 85%; recovery at 0 h, 250 µM ([2]; human, blood, time 0, read-out: Extraction efficiency): 69%; second peak (X2) portion in the blood extraction ([2]; time 0): < 10%; inhibition of fibrinogen bound on ADP-activated platelets [3, 5]: inhibited preferentially; inhibitory effect on ADP-stimulated PF3 activity (Platelet Factor 3 (PF3); [5]): significantly greater than that of the non-thio reference agent
